Holding throughout (format): cell-based
Experiment [1] has as its system LN229. The experiment is described as follows: Western blot for cleaved caspase 3. The protocol:
(§1) Total protein was obtained from indicated cells by rinsing cells with 1×PBS (phosphate buffered saline) followed by directed lysis in 2× sample buffer (125 mM Tris-HCL at pH 6.8, 2% sodium dodecyl sulfate (SDS), 10% 2-mercaptoethanol, 20% glycerol, 0.05% bromophenol blue, 8 M urea); 2× sample buffer was added to each well and cells scraped with a cell scraper. The lysate was collected from each well, placed into a 1.5 mL microcentrifuge tube and heated for 10 minutes at 95° C. in a dry-bath heat block. Protein lysates were separated by sodium dodecyl sulfate-polyacrylamide gel electrophoresis (SDS-PAGE) at 100V for 1 hour. […] Data was analyzed with NIH Image J. Antibodies were obtained from Cell Signaling Technologies (Danvers, MA): Cleaved Caspase 3 antibody (cat: 94530). […]
On the technique in general: In western blotting, separated proteins are transferred to a membrane and probed.

Experiment [2] has as its system BT549. The experiment is described as follows: Western blot for cleaved caspase 3. The protocol: as §1
For experiment [3], the system named is MDA-MB-468. The experiment can be described thus: Colony formation assay (crystal violet). As to conditions: treated five days.
In experiment [4] the test system is BT549 cells. The experiment can be described thus: Propidium iodide / FITC-Annexin V flow cytometry. As to conditions: 1 μM, 48 hours. The method, then:
(§2) FIGS. 3A-3D: FOXO1 Inhibitor Treatment led to Apoptosis. (FIGS. 3A-3C) LN229 and BT549 cells were treated with 1 μM AS1842856 and were stained with propidium iodide and FITC-Annexin V followed by flow cytometric analyses. […] (FIG. 3D) Western blot analyses were performed with BT549 and LN229 samples that were treated with AS1842856. Both cell lines had increased caspase 3 cleavage.
(§3) FOXO1 inhibition led to apoptosis induction based on Caspase 3 cleavage and flow cytometric analyses. To clarify the impact of FOXO1 on BBC and GBM cell viability, BT549 and LN229 cells were treated with AS1842856 for 48 and 72 hours respectively.
For orientation: In flow cytometry, cells or beads pass a laser one at a time.

The subject of experiment [5] is LN229 cells. The experiment can be described thus: Propidium iodide / FITC-Annexin V flow cytometry. To be noted: 1 μM, 72 hours. The protocol: as §2, §3
The subject of experiment [6] is BT549 CSCs. The experiment can be described thus: Gene expression by qRT-PCR in cancer stem cells. To be noted: 1 μM for 48 hours. The method, then: (§4) Cell culture and drug treatments. Cell lines were obtained from ATCC (American Type Culture Collection, Manassas, VA) and grown under standard conditions (5% CO2, 10% FBS (fetal bovine serum), with 5% antifungal/antibacterial). Cell lines were tested for Mycoplasma using the MycoAlert Mycoplasma Detection Kit (Lonza, Basel Switzerland, cat: LT07-218); all experiments were done with mycoplasma negative cells. U87MG cells were propagated in MEM (Minimal Essential Medium). BT549 and DBTRG cells were propagated in RPMI (Roswell Park Memorial Institute 1640 Medium). LN18, U118MG, A172 and LN229 cells were propagated in DMEM (Dulbecco's Modified Eagle Medium). Neurosphere/cancer stem cell cultures for U87MG and BT549 cell lines were plated with 40,000 cells per mL in 3D Tumorsphere Medium XF (Sigma cat: C-28070, Burlington, MA). BT549 cancer stem cell cultures were supplemented with 1XB27 XenoFree CTS (Gibco/Thermo Fisher Waltham, MA, USA). AS1842856 was purchased from Calbiochem (Danvers, MA) and utilized at 200 nM, 500 nM and 1 μM final concentrations as indicated. […] Samples (cDNAs) were analyzed using (Power SYBR Green Master Mix, Applied Biosystems, Foster City, CA) and the ABI Step-One Real-time system (Carlsbad, CA). Expression levels were normalized to Beta-Tubulin, TUBB in gene expression experiments and calculated using 2-4ACT method (Livak et al., 2001). […]

Experiment [7] relates to U87MG CSCs. The experiment is described as follows: Gene expression by qRT-PCR in cancer stem cells. To be noted: 1 μM for 48 hours. The method, then:
as §4

For experiment [8], the system named is HCT116. The experiment can be described thus: Colony formation assay (crystal violet). To be noted: treated five days.

Each structure is given as a SMILES string.

For the molecule `CCn1cc(C(=O)O)c(=O)c2c(N)c(F)c(NC3CCCCC3)cc21` [AS1842856, 5-Amino-7-(cyclohexylamino)-1-ethyl-6-fluoro-4-oxo-1,4-dihydroquinoline-3-carboxylic acid], the “caspase 3 cleavage” value in experiment [1] and in experiment [2] was “positive for caspase 3 cleavage” in each case. Moreover, the colony formation result in experiment [3] is “fewer cells with 200 nM drug treatment with further reductions using 500 nM and 1 μM drug”; in experiment [8] it was “Significantly reduced colony formation”. Moreover, the “Annexin V-FITC and/or PI staining (indicators of apoptosis)” value in experiment [4] and in experiment [5] was “positive for Annexin V-FITC and/or PI” each time. The “FAS and BIM expression” value in experiment [6] was “FAS and BIM were induced”; in experiment [7], “FAS and BIM were induced”.

Values taken from patent US20240409934A1, “FOXO1-TARGETED THERAPY FOR THE TREATMENT OF CANCER” (BOARD OF REGENTS, THE UNIVERSITY OF TEXAS SYSTEM, priority 2021, published 2024).
